Data taken from US10450327B2, “Epidithiodioxopiperazine compound or its derivatives, and the use thereof” (priority 2011, dated 2019).

What was measured:
[1] = system: Src/ERK, β-catenin, E-cadherin; assay: Serum-induced signaling and E-cadherin expression, SK28 cells; assay type: cell-based, human
Procedure: The cells were rinsed with an ice-cold phosphate buffered saline (PBS) solution and then lysed in an extraction buffer solution containing 20 mM Hepes (pH 7.0), 1% Triton X-100, 150 mM NaCl, 10% glycerol, 1 mM EDTA, 2 mM EGTA, 1 mM DTT, 5 mM Na3VO4, 5 mM NaF, 1 mM AEBSF, aprotinin (5 μg/ml), and leupeptin (5 μg/ml). After being centrifuged at 12,000×g, the purified cell extracts were used for immunoblotting. In order to adjust the loading, the membranes were stripped by shaking them for 30 minutes at 60° C. in 67 mM Tris (pH 6.7), 2% SDS, and 100 mM 2-mercaptoethanol solution, and reprobed with an appropriate pan antibody.
This proves the peroxidase activity of GT. Again, while GT treatment in the SK28 cells reduced Src/ERK activation and β-catenin phosphorylation, it increased the expression of E-cadherin (FIG. 53B). Furthermore, GT reduced the proliferation and the migration responding to serum stimulation in both SK5 and SK28 cells (FIGS. 53C and D).

SK-MEL-5 (SK5) cells = assay: Melanoma proliferation and migration assay, SK5; assay type: cell-based, human; details: 100 nM, 1 hour pretreatment
Procedure: The extent of cell proliferation was measured using a WST-1 cell proliferation assay kit (Roche Diagnostics, USA) according to the protocol of the manufacturer. The number of cells was expressed as an absorbance value at 450 nm averaged from 3 wells after subtracting the turbidity at 600 nm. The chemotactic transmigration assay was performed in a 24-well Transwell culture chamber (Costar; polycarbonate membrane insert with 8-μm pore size). The bottom of the insert was coated with gelatin B (1 mg/ml) and air-dried for 1 hour. Retroviruses or transfection complexes were treated to melanoma cells (6×10^3). After 24 hours, the infected or transfected melanoma cells were serum-starved for 18 hours. A 20% FBS solution was added to bottom chambers including a basal medium containing 0.5% BSA. The upper chamber wells were each filled with a basal medium including 0.5% BSA. The Transwell chamber was incubated for 12 hours in a 37° C./5% CO2 incubator. After the incubation, the non-migrating cells at the top of the filter were removed. The cells that migrated onto the bottom of filter were fixed and stained with 0.6% hematoxylin and 0.5% eosin. The stained cells were photographed and counted. The number of migrating cells was averaged from 3 wells.

[2] = system: left carotid artery of a PrxII−/− mouse; assay: Wire-injured carotid artery of PrxII−/− mouse; assay type: in vivo; details: filter paper strip soaked in GT solution, 30 minutes; 10th day after injury
Procedure: In addition, in order to identify the effects of GT on vascular thickening in a PrxII−/− mouse, left carotid artery of a PrxII−/− mouse was damaged using a flexible wire. After the injury, a Whatman No. 1 filter paper strip was soaked in a control vehicle or a GT solution, and the paper was attached to the surface of vascular epithelia for 30 minutes for the solution to permeate into the tissue. The mouse was recovered at the 10th day after the injury. As a result, the ratio of intima versus media measured from the HE-stained carotid artery sample was presented as mean+− standard error (n=8 per group, *p<0.01).

NADPH oxidase (NOX) = assay: NADPH oxidase activity assay (whole cell superoxide production); assay type: cell-based, human; details: HASMCs with PDGF-B and HAECs with VEGF-A; until concentrations increased up to 500 nM
Procedure: Whole cell superoxide production was measured using an enhanced luminescence system (Diogenes, National Diagnostics). For the assay, the serum-starved cells were pre-incubated with a 100 μl Diogene reagent at 37° C. for 5 minutes. After being stimulated by the indicated growth factor, chemiluminescence was detected every second for 10 minutes with a TD-20/20 Luminometer (Turner Biosystems).
When HASMCs and HAECs were stimulated with PDGF-B and VEGF-A, respectively, the NOX activity increased approximately twofold. […] Thus, it was seen that these ETP compounds function as hydrogen peroxide reductase capable of replacing PrxII in both vascular cells, but the mechanism was not the inhibition of hydrogen peroxide producer NOX.

HAECs = assay type: cell-based, human; details: up to 50 nM (100 nM for A4, A7, A9)
Procedure: For cell proliferation assay, HAECs were divided at a concentration of 4000 cells/well in a final volume of 100 μl onto a 96-well plate including a siRNA-transfection reagent mixture. After siRNA-transfected for 24 hours, the cells were serum-starved for 18 hours, and then placed in an EBM-2 basal medium supplemented with VEGF-A165 (25 ng/ml, Cat no. 293-VE, R&D systems) for additional 24 hours. The extent of cell proliferation was measured using a WST-1 cell proliferation assay kit (Roche Diagnostics, USA), and the number of cells was expressed as absorbance at 450 nm, which was averaged from 3 wells after subtracting the turbidity at 600 nm.
The cell migration assay was performed in a 24-well Transwell culture chamber (Costar; 8-μm pore size). The bottom of the filter was coated with gelatin B (1 mg/ml) and air-dried for 1 hour. HAECs (6×10^3) were added to upper chambers including siRNA-transfection complexes. After 24 hours, the siRNA-transfected HAECs were serum-starved overnight. A solution of VEGF-A (25 ng/ml) was prepared in a basal medium including 0.5% bovine serum albumin (BSA), and added to bottom chambers. The upper chamber wells were each filled with a basal medium including 0.5% BSA. The Transwell chamber was incubated for 8 hours under the condition of 37° C./5% carbon dioxide. After the incubation, the non-migrated cells at the top of the filter were removed, and the cells that migrated onto the bottom of filter were fixed and stained with 0.6% hematoxylin and 0.5% eosin. The stained cells were photographed and counted. The number of migrating cells was averaged from 3 wells.

For `CN1C(=O)[C@]23CC4=CC=C[C@H](O)[C@H]4N2C(=O)[C@@]1(CO)SS3` [gliotoxin], the “expression of E-cadherin” value [1] was “increased”, the “Src/ERK activation and β-catenin phosphorylation” value ([1]; serum stimulation) was “reduced” and the “proliferation and migration responding to serum stimulation, SK5” value (SK-MEL-5 (SK5) cells) was “reduced”. For the same compound, the “vascular thickening (ratio of intima versus media)” value [2] was “markedly reduced”, the NOX activity (NADPH oxidase (NOX)) was “did not inhibit” and the “VEGF-induced proliferation and chemotactic transmigration of HAECs, impaired by PrxII knockdown” value (HAECs) was “enhancement”.
